Measured values published in publication PMC3789652 (Journal of pharmaceutical sciences, 2011).

How the values were obtained:
plasma proteins [1] = assay: plasma free fraction by ultrafiltration, monkey plasma; format: in vitro ADME, rhesus monkeys (Macaca mulatta); conditions: mean ± SD, n = 3; for fP Monkey: arterial monkey plasma, ultrafiltration, room temperature; for mlogDpr/pl Monkey: log10[(1−fp)/fp], monkey plasma
plasma proteins [2] = assay: plasma free fraction by ultrafiltration, human plasma; format: in vitro ADME; conditions: mean ± SD, n = 3; for mlogDpr/pl Human: log10[(1−fp)/fp]; for fP Human: ultrafiltration, room temperature
[3] = n-octanol / sodium phosphate buffer; format: physicochemical; conditions: n-octanol/sodium phosphate buffer pH 7.4, 0.15 M, room temperature; mean ± SD, n = 6

| SMILES | fP Monkey (plasma proteins [1]) | mlogDpr/pl Monkey (plasma proteins [1]) | mlogDpr/pl Human (plasma proteins [2]) | mlogD [3] | fP Human (plasma proteins [2]) |
| --- | --- | --- | --- | --- | --- |
| COc1ccccc1N1CCN(CCCCn2ncc(=O)n(C)c2=O)CC1 [Radiotracer 1, [O-methyl-^11C]2-(4-(4-(2-methoxyphenyl)piperazin-1-yl)butyl)-4-methyl-1,2,4-triazine-3,5(2H,4H)dione] | 0.594 ± 0.016 | −0.165 ± 0.029 | 0.101 ± 0.006 | 1.13 ± 0.02 | – |
| N#Cc1cc(F)cc(C#Cc2csc(CF)n2)c1 [Radiotracer 4, 3-fluoro-5-(2-(2-(fluoromethyl)thiazol-4-yl)ethynyl)benzonitrile] | – | – | 1.25 ± 0.13 | 2.18 ± 0.22 | 0.0550 ± 0.0165 |
| CN([11CH3])C(=O)C(CCN1CCC(O)(c2ccc(Cl)cc2)CC1)(c1ccccc1)c1ccccc1 [Radiotracer 7, [N-methyl-^11C]N-desmethyl-loperamide] | – | – | – | – | 0.123 ± 0.015 |
| [2H]C([18F])Oc1cccc([C@H]2C[C@@H](N[C@H](C)c3ccccc3)C(=O)N2c2ccc(C(F)(F)F)cc2)c1 (stereo partly shown) [Radiotracer 18] | 0.0041 ± 0.0001 | 2.39 ± 0.01 | 2.31 ± 0.14 | 4.24 ± 0.08 | 0.0050 ± 0.0017 |
